The results in this text go back to patent US8937092B2, “Aryl or N-heteroaryl substituted methanesulfonamide derivatives as vanilloid receptor ligands” (Gruenenthal GmbH, priority 2011, dated 2015).

One experiment concerns the target vanilloid receptor 1 (VR1/TRPV1 receptor) (Homo sapiens, UniProt Q8NER1). Nature of the experiment: Functional FLIPR Ca2+ influx assay on vanilloid receptor 1, capsaicin (Cap) stimulus. Type of experiment: cell-based. The note with it: Ki from IC50 by Cheng-Prusoff, read-out: (f) Ki (human being) [nM], Cap. As for the experimental part: Furthermore, preference may be given to compounds according to the invention that cause a 50 percent displacement of capsaicin, which is present at a concentration of 100 nM, in a FLIPR assay with CHO K1 cells which were transfected with the human VR1 gene at a concentration of less than 2,000 nM, preferably less than 1,000 nM, particularly preferably less than 300 nM, most particularly preferably less than 100 nM, even more preferably less than 75 nM, additionally preferably less than 50 nM, most preferably less than 10 nM.
In the process, the Ca^2+ influx is quantified in the FLIPR assay with the aid of a Ca^2+-sensitive dye (type Fluo-4, Molecular Probes Europe BV, Leiden, the Netherlands) in a fluorescent imaging plate reader (FLIPR, Molecular Devices, Sunnyvale, USA), as described hereinafter.
Pharmacological Methods I. Functional Testing Carried Out on the Vanilloid Receptor 1 (VRI/TRPV1 Receptor) […]
The number of cells in the suspension is set to 3×10^5 per mL and 150 μL of this suspension are in each case introduced into a recess in the cell culture plates coated as described hereinbefore. In the incubator the plates are left for two to three days at 37° C., 5% by volume of CO2 and 95% relative humidity. Subsequently, the cells are loaded with 2 μM of Fluo-4 and 0.01% by volume of Pluronic F127 (Molecular Probes Europe BV, Leiden, the Netherlands) in HBSS buffer (Hank's buffered saline solution, Gibco Invitrogen GmbH, Karlsruhe, Germany) for 30 min at 37° C., washed 3 times with HBSS buffer and after further incubation for 15 minutes at room temperature used for Ca^2+ measurement in a FLIPR assay. The Ca^2+-dependent fluorescence is in this case measured before and after the addition of substances (λex=488 nm, λem=540 nm). Quantification is carried out by measuring the highest fluorescence intensity (FC, fluorescence counts) over time.
The FLIPR protocol consists of 2 substance additions. First the compounds to be tested (10 μM) are pipetted onto the cells and the Ca^2+ influx is compared with the control (capsaicin 10 μM). This provides the result in % activation based on the Ca^2+ signal after the addition of 10 μM of capsaicin (CP). After 5 minutes' incubation, 100 nM of capsaicin are applied and the Ca^2+ influx is also determined.
Desensitising agonists and antagonists lead to suppression of the Ca^2+ influx. The % inhibition is calculated compared to the maximum achievable inhibition with 10 μM of capsazepine.
Triple analyses (n=3) are carried out and repeated in at least 3 independent experiments (N=4).
Starting from the percentage displacement caused by different concentrations of the compounds to be tested of general formula I, IC50 inhibitory concentrations which cause a 50-percent displacement of capsaicin were calculated. K, values for the test substances were obtained by conversion by means of the Cheng-Prusoff equation (Cheng, Prusoff; Biochem. Pharmacol. 22, 3099-3108, 1973).
The affinity of the compounds according to the invention for the vanilloid receptor 1 (VR1/TRPV1 receptor) was determined as described herein before (pharmacological method I).
The value after the “@” symbol indicates the concentration at which the inhibition (as a percentage) was respectively determined.
For `COc1ccc(-c2nc(C(F)(F)F)ccc2CNC(=O)C(C)c2ccc(CNS(C)(=O)=O)c(F)c2)cc1` (stereo not drawn) [Example 62, 2-(3-fluoro-4-(methylsulfonamidomethyl)phenyl)-N-((2-(4-methoxyphenyl)-6-(trifluoromethyl)pyridin-3-yl)methyl)propanamide], the Ki (in general, the equilibrium dissociation constant of an inhibitor or competing ligand from its target) turned out to be 59 nM.

Take `Cc1cccc(-c2nc(C(F)(F)F)ccc2CNC(=O)Nc2ccc(CNS(C)(=O)=O)c(C)c2)c1` [Example 81, N-(2-methyl-4-(3-((2-m-tolyl-6-(trifluoromethyl)pyridin-3-yl)methyl)ureido)benzyl)methanesulfonamide]: the Ki was 7 nM.

For `COc1ccccc1-c1nc(C(F)(F)F)ccc1CNC(=O)C(C)c1ccc(CNS(C)(=O)=O)c(F)c1` (stereo not drawn) [Example 60, 2-(3-fluoro-4-(methylsulfonamidomethyl)phenyl)-N-((2-(2-methoxyphenyl)-6-(trifluoromethyl)pyridin-3-yl)methyl)propanamide], the Ki is 43 nM.

Consider `CC(C(=O)NCc1ccc(C(F)(F)F)nc1-c1cc(F)cc(F)c1)c1ccc(CNS(C)(=O)=O)c(F)c1` (stereo not drawn) [Example 11, N-((2-(3,5-difluorophenyl)-6-(trifluoromethyl)pyridin-3-yl)methyl)-2-(3-fluoro-4-(methylsulfonamidomethyl)phenyl)propanamide], for which the Ki was 41 nM.

On to `Cc1cccc(-c2nc(C(C)(C)C)ccc2CNC(=O)C(C)c2ccc(CNS(C)(=O)=O)c(F)c2)c1` (stereo not drawn) [Example 23, N-((6-tert-butyl-2-m-tolylpyridin-3-yl)methyl)-2-(3-fluoro-4-(methylsulfonamidomethyl)phenyl)propanamide], for which the Ki worked out at 24 nM.

Take `COc1cc(NC(=O)NCc2ccc(C(F)(F)F)nc2-c2cccc(C)c2)ccc1CNS(C)(=O)=O` [Example 80, N-(2-methoxy-4-(3-((2-m-tolyl-6-(trifluoromethyl)pyridin-3-yl)methyl)ureido)benzyl)methanesulfonamide]: the Ki was determined as 68 nM.

In the case of `CCS(=O)(=O)NCc1ccc(C(C)C(=O)NCc2ccc(C(F)(F)F)nc2-c2cccc(C)c2)cc1F` (stereo not drawn) [Example 83, 2-(4-(ethylsulfonamidomethyl)-3-fluorophenyl)-N-((2-m-tolyl-6-(trifluoromethyl)pyridin-3-yl)methyl)propanamide], the inhibition constant (Ki) came out at 74 nM.

Regarding `COc1ccc(-c2nc(C(F)(F)F)ccc2CNC(=O)C(C)c2ccc(CNS(C)(=O)=O)c(F)c2)cc1F` (stereo not drawn) [Example 14, 2-(3-fluoro-4-(methylsulfonamidomethyl)phenyl)-N-((2-(3-fluoro-4-methoxyphenyl)-6-(trifluoromethyl)pyridin-3-yl)methyl)propanamide], the Ki was 68 nM.

Regarding `COc1ccc(-c2nc(C(F)(F)F)ccc2CNC(=O)C(C)c2ccc(CNS(C)(=O)=O)c(F)c2)cn1` (stereo not drawn) [Example 68, 2-(3-fluoro-4-(methylsulfonamidomethyl)phenyl)-N-((6′-methoxy-6-(trifluoromethyl)-2,3′-bipyridin-3-yl)methyl)propanamide], the inhibitory constant (Ki) came out at 72 nM.

In the case of `CC(C(=O)NCc1ccc(C(F)(F)F)nc1-c1cccc(N(C)C)c1)c1ccc(CNS(C)(=O)=O)c(F)c1` (stereo not drawn) [Example 55, N-((2-(3-(dimethylamino)phenyl)-6-(trifluoromethyl)pyridin-3-yl)methyl)-2-(3-fluoro-4-(methylsulfonamidomethyl)phenyl)propanamide], the Ki came out at 42 nM.

As for `Cc1cccc(-c2nc(C(F)(F)F)ccc2CNC(=O)C(C)c2ccc(CNS(N)(=O)=O)c(F)c2)c1` (stereo not drawn) [Example 85, 2-(3-fluoro-4-((sulfamoylamino)methyl)phenyl)-N-((2-m-tolyl-6-(trifluoromethyl)pyridin-3-yl)methyl)propanamide], the Ki turned out to be 3 nM.

With `Cc1cccc(-c2cc(C(F)(F)F)ccc2CNC(=O)C(C)c2ccc(CNS(C)(=O)=O)c(F)c2)c1` (stereo not drawn) [Example 22, 2-(3-fluoro-4-(methylsulfonamidomethyl)phenyl)-N-((3′-methyl-5-(trifluoromethyl)biphenyl-2-yl)methyl)propanamide], the Ki turned out to be 23 nM.

Regarding `CC(C(=O)NCc1ccc(C(F)(F)F)nc1-c1ccc(F)cc1)c1ccc(CNS(C)(=O)=O)c(F)c1` (stereo not drawn) [Example 8, 2-(3-fluoro-4-(methylsulfonamidomethyl)phenyl)-N-((2-(4-fluorophenyl)-6-(trifluoromethyl)pyridin-3-yl)methyl)propanamide], the Ki worked out at 66 nM.

Consider `Cc1cccc(-c2nc(C(F)(F)F)ccc2CNC(=O)C(C)c2ccc(CNS(C)(=O)=O)c(F)c2)c1F` (stereo not drawn) [Example 34, N-((2-(2-fluoro-3-methylphenyl)-6-(trifluoromethyl)pyridin-3-yl)methyl)-2-(3-fluoro-4-(methylsulfonamidomethyl)phenyl)propanamide], for which the Ki stood at 27 nM.

In the case of `Cc1cccc(-c2nc(C3CC3)ccc2CNC(=O)C(C)c2ccc(CNS(C)(=O)=O)c(F)c2)c1` (stereo not drawn) [Example 20, N-((6-cyclopropyl-2-m-tolylpyridin-3-yl)methyl)-2-(3-fluoro-4-(methylsulfonamidomethyl)phenyl)propanamide], the Ki turned out to be 45 nM.

Regarding `CC(C(=O)NCc1ccc(C(F)(F)F)nc1-c1cccc(C(C)(C)C)c1)c1ccc(CNS(C)(=O)=O)c(F)c1` (stereo not drawn) [Example 51, N-((2-(3-tert-butylphenyl)-6-(trifluoromethyl)pyridin-3-yl)methyl)-2-(3-fluoro-4-(methylsulfonamidomethyl)phenyl)propanamide], the Ki came to 1 nM.

In the case of `Cc1cccc(-c2nc(C(F)(F)F)ccc2CNC(=O)C(C)c2ccc(CNS(C)(=O)=O)c(F)c2)c1C` (stereo not drawn) [Example 30, N-((2-(2,3-dimethylphenyl)-6-(trifluoromethyl)pyridin-3-yl)methyl)-2-(3-fluoro-4-(methylsulfonamidomethyl)phenyl)propanamide], the Ki came to 41 nM.

With “2-(3-methyl-4-(methylsulfonamidomethyl)phenyl)-N-((2-m-tolyl-6-(trifluoromethyl)pyridin-3-yl)methyl)propanamide [Example 97]”, the Ki was 4 nM.

Consider `CC(C(=O)NCc1ccc(C(F)(F)F)nc1-c1cc(F)ccc1F)c1ccc(CNS(C)(=O)=O)c(F)c1` (stereo not drawn) [Example 12, N-((2-(2,5-difluorophenyl)-6-(trifluoromethyl)pyridin-3-yl)methyl)-2-(3-fluoro-4-(methylsulfonamidomethyl)phenyl)propanamide], for which the Ki came to 42 nM.

As for `Cc1cc(F)cc(-c2nc(C(F)(F)F)ccc2CNC(=O)C(C)c2ccc(CNS(C)(=O)=O)c(F)c2)c1` (stereo not drawn) [Example 36, 2-(3-fluoro-4-(methylsulfonamidomethyl)phenyl)-N-((2-(3-fluoro-5-methylphenyl)-6-(trifluoromethyl)pyridin-3-yl)methyl)propanamide], the Ki came out at 63 nM.

The experiment is the same for the next values; noted with them: inhibition at 5 μM, read-out: (f) inhibition (human being), Cap, @5 μM.
Turning to `CC(C(=O)NCc1ccc(C(F)(F)F)nc1-c1cccc(O)c1)c1ccc(CNS(C)(=O)=O)c(F)c1` (stereo not drawn) [Example 59, 2-(3-fluoro-4-(methylsulfonamidomethyl)phenyl)-N-((2-(3-hydroxyphenyl)-6-(trifluoromethyl)pyridin-3-yl)methyl)propanamide], the inhibition (in general, how much of the control response was suppressed) at 5 µM is 20%.

In the case of `CC(C(=O)NCc1ccc(C(F)(F)F)nc1-c1ccccc1F)c1ccc(CNS(C)(=O)=O)c(F)c1` (stereo not drawn) [Example 6, 2-(3-fluoro-4-(methylsulfonamidomethyl)phenyl)-N-((2-(2-fluorophenyl)-6-(trifluoromethyl)pyridin-3-yl)methyl)propanamide], the inhibition at 5 µM stood at 37%.

Consider `Cc1ccc(C)c(-c2nc(C(F)(F)F)ccc2CNC(=O)C(C)c2ccc(CNS(C)(=O)=O)c(F)c2)c1` (stereo not drawn) [Example 33, N-((2-(2,5-dimethylphenyl)-6-(trifluoromethyl)pyridin-3-yl)methyl)-2-(3-fluoro-4-(methylsulfonamidomethyl)phenyl)propanamide], for which the inhibition at 5 µM came out at 35%.

In the case of `Cc1ncccc1-c1nc(C(F)(F)F)ccc1CNC(=O)C(C)c1ccc(CNS(C)(=O)=O)c(F)c1` (stereo not drawn) [Example 71, 2-(3-fluoro-4-(methylsulfonamidomethyl)phenyl)-N-((2′-methyl-6-(trifluoromethyl)-2,3′-bipyridin-3-yl)methyl)propanamide], the inhibition at 5 µM was 19%.
